Results on 13 molecules are retold here after patent publication US20230080054A1 (ILDONG PHARMACEUTICAL CO., LTD., priority 2021, published 2023).

Some results are limits rather than exact numbers.

The target in this assay is T1, human ANO6 (Homo sapiens, UniProt Q4KMQ2).
T1 construct: expressed in transfected cells
T1 sequence (Q4KMQ2 1-931 isoform Q4KMQ2-2): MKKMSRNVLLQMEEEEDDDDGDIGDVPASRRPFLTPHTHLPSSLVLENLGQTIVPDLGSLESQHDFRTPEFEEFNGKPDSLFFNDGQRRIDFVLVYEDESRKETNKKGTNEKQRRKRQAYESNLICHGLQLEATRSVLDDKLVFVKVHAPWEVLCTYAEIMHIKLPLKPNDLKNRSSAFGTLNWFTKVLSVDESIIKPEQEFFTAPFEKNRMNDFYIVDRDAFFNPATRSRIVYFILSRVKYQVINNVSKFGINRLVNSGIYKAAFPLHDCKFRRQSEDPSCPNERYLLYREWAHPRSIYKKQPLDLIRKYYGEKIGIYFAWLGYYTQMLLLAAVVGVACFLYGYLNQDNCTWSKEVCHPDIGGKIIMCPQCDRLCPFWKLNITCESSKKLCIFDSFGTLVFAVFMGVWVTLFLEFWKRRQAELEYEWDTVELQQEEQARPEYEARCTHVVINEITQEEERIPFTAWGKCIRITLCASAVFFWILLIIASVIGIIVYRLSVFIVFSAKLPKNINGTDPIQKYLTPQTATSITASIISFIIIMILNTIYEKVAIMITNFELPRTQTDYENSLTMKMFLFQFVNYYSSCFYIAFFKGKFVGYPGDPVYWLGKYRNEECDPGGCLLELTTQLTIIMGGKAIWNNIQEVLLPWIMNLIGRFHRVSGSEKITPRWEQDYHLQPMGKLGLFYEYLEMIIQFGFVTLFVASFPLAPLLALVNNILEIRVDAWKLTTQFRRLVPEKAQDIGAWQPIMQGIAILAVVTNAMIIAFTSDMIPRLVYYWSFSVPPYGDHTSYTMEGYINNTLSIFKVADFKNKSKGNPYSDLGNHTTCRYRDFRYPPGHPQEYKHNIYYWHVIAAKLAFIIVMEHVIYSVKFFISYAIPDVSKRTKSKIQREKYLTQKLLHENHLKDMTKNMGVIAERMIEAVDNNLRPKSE
The experiment in a line: LACT C2 assay (phosphatidylserine scramblase function assay). It is filed as cell-based. Conditions: FRT cells expressing human ANO6, 10 μM ionomycin; for inhibition at 0.1 µM: test compound 100 nM, read-out: Inhibition Level 100 nM; for inhibition at 1 µM: test compound 1 μM, read-out: Inhibition Level 1 μM. The method, boiled down: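 Inhibition was normalised between ionomycin-only (0%) and untreated (100%) wells, with triplicates averaged. Readout was background-corrected Lact-C2-GFP (500 nM) fluorescence from imaged cells. The cells were FRT cells stably expressing human ANO6, given compound at 1% DMSO for 10 min before a 10 min 10 μM ionomycin challenge.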

As usually defined, the inhibition is the change of the read-out against control, counted positive when it falls. For the molecule `CC(C)(NC(=O)c1cccc(Nc2ccc(-c3ccccc3)nn2)c1)c1ccc(F)cc1` [Compound 213, N-(2-(4-fluorophenyl)propan-2-yl)-3-((6-phenylpyridazin-3-yl)amino)benzamide], the inhibition at 0.1 µM was below 30% and the inhibition at 1 µM fell in the range of 30 to 60%.
For `COc1cc(F)ccc1CNC(=O)c1cccc(Nc2ccc(-c3ccccc3)nn2)c1` [Compound 214, N-(4-fluoro-2-methoxybenzyl)-3-((6-phenylpyridazin-3-yl)amino)benzamide], the inhibition at 0.1 µM is below 30% and the inhibition at 1 µM was in the range of 30 to 60%.
Taken in the same sequence, the figures for `O=C(NCc1ccc(F)cc1F)c1cccc(Nc2ncc(-c3cccc(F)c3)cn2)c1` [Compound 215, N-(2,4-difluorobenzyl)-3-((5-(3-fluorophenyl)pyrimidin-2-yl)amino)benzamide] were below 30% and below 30%.
Taken in the same sequence, the figures for `O=C(NCc1ccccc1Br)c1cccc(Nc2ncc(-c3cccc(F)c3)cn2)c1` [Compound 216, N-(2-bromobenzyl)-3-((5-(3-fluorophenyl)pyrimidin-2-yl)amino)benzamide] were below 30% and below 30%.
For the molecule `O=C(NCc1ccc(F)c(F)c1F)c1cccc(Nc2ncc(-c3cccc(F)c3)cn2)c1` [Compound 217, 3-((5-(3-fluorophenyl)pyrimidin-2-yl)amino)-N-(2,3,4-trifluorobenzyl)benzamide], the inhibition at 0.1 µM was below 30% and the inhibition at 1 µM was in the range of 30 to 60%.
As to `N#CC1(NC(=O)c2cccc(Nc3ncc(-c4cccc(F)c4)cn3)c2)CC1` [Compound 218, N-(1-cyanocyclopropyl)-3-((5-(3-fluorophenyl)pyrimidin-2-yl)amino)benzamide], the inhibition at 0.1 µM is below 30% and the inhibition at 1 µM lay in the range of 30 to 60%.
`O=C(NC1(CO)CC1)c1cccc(Nc2ncc(-c3cccc(F)c3)cn2)c1` [Compound 219, 3-((5-(3-fluorophenyl)pyrimidin-2-yl)amino)-N-(1-(hydroxymethyl)cyclopropyl)benzamide]: the inhibition at 0.1 µM is below 30% and the inhibition at 1 µM is below 30%.
For the molecule `CCN1CCN(c2cc(F)ccc2CNC(=O)c2cccc(Nc3ccc(-c4ccccc4)nn3)c2)CC1` [Compound 220, N-(2-(4-ethylpiperazin-1-yl)-4-fluorobenzyl)-3-((6-phenylpyridazin-3-yl)amino)benzamide], the inhibition at 0.1 µM lay in the range of 30 to 60%.
In the case of `O=C(N[C@@H]1C[C@H]1c1ccc(Cl)c(F)c1)c1cccc(Nc2ccc(-c3ccccc3)nn2)c1` [Compound 221, N-((1R,2S)-2-(4-chloro-3-fluorophenyl)cyclopropyl)-3-((6-phenylpyridazin-3-yl)amino)benzamide], the inhibition at 0.1 µM lay within 30 to 60% and the inhibition at 1 µM is at least 60%.
`CN1CCN(c2cc(F)ccc2CNC(=O)c2cccc(Nc3ccc(-c4ccccc4)nn3)c2)CC1` [Compound 222, N-(4-fluoro-2-(4-methylpiperazin-1-yl)benzyl)-3-((6-phenylpyridazin-3-yl)amino)benzamide]: the inhibition at 0.1 µM is below 30% and the inhibition at 1 µM fell in the range of 30 to 60%.
Take `N#CC1(NC(=O)c2cccc(Nc3ccc(-c4cccc(F)c4)nn3)c2)CC1` [Compound 223, N-(1-cyanocyclopropyl)-3-((6-(3-fluorophenyl)pyridazin-3-yl)amino)benzamide]: the inhibition at 0.1 µM was below 30% and the inhibition at 1 µM was in the range of 30 to 60%.
`O=C(NC1(CO)CC1)c1cccc(Nc2ccc(-c3cccc(F)c3)nn2)c1` [Compound 224, 3-((6-(3-fluorophenyl)pyridazin-3-yl)amino)-N-(1-(hydroxymethyl)cyclopropyl)benzamide]: the inhibition at 0.1 µM is below 30% and the inhibition at 1 µM was below 30%.
For the molecule `N#CC1(NC(=O)c2cccc(Nc3ccc(-c4ccccc4)nn3)c2)CC1` [Compound 225, N-(1-cyanocyclopropyl)-3-((6-phenylpyridazin-3-yl)amino)benzamide], the inhibition at 0.1 µM was below 30% and the inhibition at 1 µM was in the range of 30 to 60%.
